In ChEMBL document CHEMBL3233003, “Chromodomain antagonists that target the polycomb-group methyllysine reader protein chromobox homolog 7 (CBX7)” (J Med Chem, 2014):
Non-standard residues stand in square brackets, D forms with d. Residues, ends and D or L forms follow the SMILES beside them. *: point of attachment. Benzenesulfonyl(4-OMe) = COc1ccc(S(=O)(=O)*)cc1; Lys(Me3) = C[N+](C)(C)CCCC[C@H](N)C(=O)O; NBnAla = C[C@H](NCc1ccccc1)C(=O)O; 3Pal = N[C@@H](Cc1cccnc1)C(=O)O; X6 = O=C(O)c1ccc(S(=O)(=O)*)cc1; Cha = N[C@@H](CC1CCCCC1)C(=O)O; Tle = CC(C)(C)[C@H](N)C(=O)O; Tos = Cc1ccc(S(=O)(=O)*)cc1; X2 = O=C(c1c[nH]c2ccccc12)*; NHCH(CH2OH)2 = OCC(CO)N*; Cbz = O=C(OCc1ccccc1)*; PhAc = O=C(Cc1ccccc1)*; Bz = O=C(c1ccccc1)*; X1 = CCCC(CO)N*

What follows are compounds tested against T1, Chromobox protein homolog 7 (Homo sapiens, UniProt O95931) (assay: Displacement of FITC-labeled H3K27me3 from CBX7 (unknown origin) after 15 mins by fluorescence polarization assay).
T1 sequence (O95931 whole entry): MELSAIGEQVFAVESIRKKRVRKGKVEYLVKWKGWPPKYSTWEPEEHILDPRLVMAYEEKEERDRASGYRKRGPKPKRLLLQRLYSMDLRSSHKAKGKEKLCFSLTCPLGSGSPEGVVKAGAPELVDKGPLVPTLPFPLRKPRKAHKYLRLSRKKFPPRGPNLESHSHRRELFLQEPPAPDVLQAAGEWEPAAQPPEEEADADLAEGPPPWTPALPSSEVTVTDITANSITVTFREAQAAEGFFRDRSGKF

| SMILES | IC50 |
| --- | --- |
| CC(C)C[C@H](NC(=O)[C@H](C)NC(=O)[C@H](Cc1ccccc1)NS(=O)(=O)c1ccc(C(=O)O)cc1)C(=O)N[C@@H](CCCC[N+](C)(C)C)C(=O)N[C@@H](CO)C(N)=O (X6-FAL[Lys(Me3)]S-NH2) | 6.7 µM |
| CC(=O)N[C@@H](Cc1ccccc1)C(=O)N[C@@H](C)C(=O)N[C@@H](Cc1c[nH]c2ccccc12)C(=O)N[C@@H](CCCC[N+](C)(C)C)C(=O)N[C@@H](CO)C(N)=O (Ac-FAW[Lys(Me3)]S-NH2) | 13 µM |
| COc1ccc(S(=O)(=O)N[C@@H](C)C(=O)N[C@@H](CC(C)C)C(=O)N[C@@H](CCCC[N+](C)(C)C)C(=O)N[C@@H](CO)C(N)=O)cc1 ({Benzenesulfonyl(4-OMe)}-AL[Lys(Me3)]S-NH2) | > 250 µM |
| CC(=O)N[C@@H](Cc1ccccc1)C(=O)N[C@@H](C)C(=O)N[C@@H](Cc1ccccc1)C(=O)N[C@@H](CCCC[N+](C)(C)C)C(=O)N[C@@H](CO)C(N)=O (Ac-FAF[Lys(Me3)]S-NH2) | 10.3 µM |
| CC(=O)N[C@@H](Cc1ccccc1)C(=O)N[C@@H](C)C(=O)N[C@@H](Cc1cccnc1)C(=O)N[C@@H](CCCC[N+](C)(C)C)C(=O)N[C@@H](CO)C(N)=O (Ac-FA[3Pal][Lys(Me3)]S-NH2) | 11 µM |
| Cc1ccc(S(=O)(=O)NCC(=O)N[C@@H](C)C(=O)N[C@@H](CC(C)C)C(=O)N[C@@H](CCCC[N+](C)(C)C)C(=O)N[C@@H](CO)C(N)=O)cc1 (Tos-GAL[Lys(Me3)]S-NH2) | 34 µM |
| CC(=O)N[C@@H](Cc1ccccc1)C(=O)N[C@@H](C)C(=O)N[C@@H](CC1CCCCC1)C(=O)N[C@@H](CCCC[N+](C)(C)C)C(=O)N[C@@H](CO)C(N)=O (Ac-FA[Cha][Lys(Me3)]S-NH2) | 8.8 µM |
| CC(C)C[C@H](NC(=O)[C@H](C)NC(=O)OCc1ccccc1)C(=O)N[C@@H](CCCC[N+](C)(C)C)C(=O)N[C@@H](CO)C(N)=O (Cbz-AL[Lys(Me3)]S-NH2) | 58 µM |
| CC(C)C[C@H](NC(=O)[C@H](C)NCc1ccccc1)C(=O)N[C@@H](CCCC[N+](C)(C)C)C(=O)N[C@@H](CO)C(N)=O (H-[NBnAla]L[Lys(Me3)]S-NH2) | > 2000 µM |
| CC(C)C[C@H](NC(=O)[C@H](C)NC(=O)c1c[nH]c2ccccc12)C(=O)N[C@@H](CCCC[N+](C)(C)C)C(=O)N[C@@H](CO)C(N)=O (X2-AL[Lys(Me3)]S-NH2) | 67 µM |
| CC(C)C[C@H](NC(=O)[C@H](C)NC(=O)c1ccccc1)C(=O)N[C@@H](CCCC[N+](C)(C)C)C(=O)N[C@@H](CO)C(N)=O (Bz-AL[Lys(Me3)]S-NH2) | 57 µM |

Results, then the compound that gave them:

| IC50 | SMILES |
| --- | --- |
| 10.1 µM | CC(=O)N[C@@H](Cc1ccccc1)C(=O)N[C@@H](C)C(=O)N[C@@H](CCCCN)C(=O)N[C@@H](CCCC[N+](C)(C)C)C(=O)N[C@@H](CO)C(N)=O (Ac-FAK[Lys(Me3)]S-NH2) |
| 39 µM | CC[C@H](NC(=O)[C@H](Cc1ccccc1)NC(C)=O)C(=O)N[C@@H](CC(C)C)C(=O)N[C@@H](CCCC[N+](C)(C)C)C(=O)N[C@@H](CO)C(N)=O |
| 100 µM | CC(C)C[C@H](NC(=O)[C@H](C)NC(=O)CNC(=O)Cc1ccccc1)C(=O)N[C@@H](CCCC[N+](C)(C)C)C(=O)N[C@@H](CO)C(N)=O (PhAc-GAL[Lys(Me3)]S-NH2) |
| > 500 µM | CC(=O)N[C@@H](Cc1ccccc1)C(=O)N[C@H](C(=O)N[C@@H](CC(C)C)C(=O)N[C@@H](CCCC[N+](C)(C)C)C(=O)N[C@@H](CO)C(N)=O)C(C)C (Ac-FVL[Lys(Me3)]S-NH2) |
| 7.8 µM | CC(=O)N[C@@H](Cc1c[nH]c2ccccc12)C(=O)N[C@@H](C)C(=O)N[C@@H](CC(C)C)C(=O)N[C@@H](CCCC[N+](C)(C)C)C(=O)N[C@@H](CO)C(N)=O (Ac-WAL[Lys(Me3)]S-NH2) |
| 67 µM | CC(=O)N[C@@H](Cc1ccccc1)C(=O)N[C@@H](C)C(=O)N[C@H](C(=O)N[C@@H](CCCC[N+](C)(C)C)C(=O)N[C@@H](CO)C(N)=O)C(C)(C)C (Ac-FA[Tle][Lys(Me3)]S-NH2) |
| 27 µM | CC(=O)N[C@@H](Cc1ccccc1)C(=O)N[C@@H](C)C(=O)N[C@@H](CC(C)C)C(=O)N[C@@H](CCCC[N+](C)(C)C)C(=O)N[C@@H](CO)C(=O)O |
| > 500 µM | CCCC(CO)NC(=O)[C@H](CCCC[N+](C)(C)C)NC(=O)[C@H](CC(C)C)NC(=O)[C@H](C)NC(=O)[C@H](Cc1ccccc1)NC(C)=O (some centres not stated) (Ac-FAL[Lys(Me3)]-X1) |
| 23 µM | CC(=O)N[C@@H](Cc1ccccc1)C(=O)N[C@@H](C)C(=O)N[C@@H](CC(C)C)C(=O)N[C@@H](CCCC[N+](C)(C)C)C(=O)NC(CO)CO (Ac-FAL[Lys(Me3)]-{NHCH(CH2OH)2}) |
| 6.8 µM | CC(=O)N[C@@H](Cc1ccccc1)C(=O)N[C@@H](C)C(=O)N[C@H](C(=O)N[C@@H](CCCC[N+](C)(C)C)C(=O)N[C@@H](CO)C(N)=O)C(C)C (Ac-FAV[Lys(Me3)]S-NH2) |
| 23 µM | CC(C)C[C@H](NC(=O)[C@H](C)NC(=O)Cc1ccccc1)C(=O)N[C@@H](CCCC[N+](C)(C)C)C(=O)N[C@@H](CO)C(N)=O (PhAc-AL[Lys(Me3)]S-NH2) |
